Assay results taken from patent publication US12186312B2, “Sleep improving agent” (Amino Up Co., Ltd., priority 2016, dated 2025).

Columns and labels:
[1] = tested on: HSP70 mRNA expression in human promyelocytic leukemia cells (HL-60 cells); assay: Evaluation of HSP70 mRNA expression-inducing activity in HL-60 cells; format: cell-based; conditions: for concentration at which HSP70 mRNA expression inducing ability was increased up to 150% relative to the control: 4 hours at 37° C., corrected with beta 2 microglobulin gene; for HSP70 mRNA expression as compared with the control: 4 hours, FIGS. 1-3, percentages for the control
Procedure: The HSP70 expression-inducing activity by Compounds 1-3 was evaluated by measuring a HSP70 mRNA expression level.
Human promyelocytic leukemia cells (HL-60 cells) was suspended in RPMI 1640 medium supplemented with 10% fetal bovine serum, and was transferred into a 1.5 mL tube (45,000 cells/0.9 mL). To the tube was added 0.1 mL of each sample that had been prepared in a 1% DMSO solution and the tube was allowed to stand at 37° C. for 4 hours. To a control was added 0.1 mL of 1% DMSO solution. After cultured for 4 hours, the cells was centrifuged by a small refrigerated centrifuge (1,000 g×5 minutes) to precipitate the HL-60 cells. After removal of the supernatant, the cells were lysed in 0.25 mL Trizol (manufactured by Thermo Fisher Scientific) and then total RNA was extracted according to the protocol. The RNA was dissolved in RNase-free water, and the concentration of the RNA (wave length 260 nm) was measured by using a microvolume spectrophotometer NanoDrop 2000/2000c (manufactured by Thermo Fisher Scientific). The RNA solution was diluted with RNase-free water so as to have a concentration of 50 ng/mL, and then cDNA was synthesized by using ReverTra Ace® qPCR RT Kit (manufactured by TOYOBO). The reaction liquid (10 μl) after the reverse transcription was diluted with RNase-free water so as to be 100 μL, and then used as a template for PCR. Beta 2 microglobulin gene was used as an internal control gene for correction of the HSP70 gene expression. The primer sequences of genes used for the PCR reaction are as follows.
The expression was analyzed by using CFX Connect Real-Time PCR Detection System (manufactured by Bio-rad). 10 μL of the PCR reaction liquid was incubated at 95° C. for 3 minutes (initial denaturation), followed by repetition of 55 cycles comprising denaturation at 95° C. for 10 seconds, and annealing and extension at 57.8° C. for 30 seconds. Finally, the melting curve was measured every 0.2° C. in the range from 65° C. to 95° C. Expression levels of HSP70 gene and internal standard gene were analyzed using Bio-Rad CFX Manager 3.1.

male Wistar rats = assay: Light period activity level after 8-hour phase advance (model of mild sleep disorder), dietary administration; format: in vivo, rat; conditions: for activity level of Day 1 and Day 2 during the light period compared with the Control group: Dunnett test with mixed model for repeated measures; for activity level on Day 1, light period (12 hours) after the phase advance compared with the Control group: Dunnett test
Description: Firstly, 7-week old male Wistar rats were implanted intraperitoneally with a small activity meter (NanoTag®, Kissei Comtech Co., Ltd.). Subsequently, after a week of recovery period, the rats were divided into four groups (Control group, Compound A-1 group, Compound A-2 group, and Compound A-3 group; n=17 each) shown in Table 1 by stratified randomization assignment using body weight as an index, and test diets were dietary administered to them. At the 15th day from the start of dietary administration, the light/dark cycle was advanced by 8 hours, and after that, dietary administration of test diets was continued for 2 weeks. The light/dark cycle of the breeding environment excluding the phase advance date was set to 12 hours cycle, and the illuminance of the light period was set to be approximately 200 1× (185-230 1×). In this model of mild sleep disorder with the phase advance, the influence of test feed administration on the light period activity level after the phase advance was examined.
The test was carried out by a two-sided test, the significance level of the test was set to 5%, and the trend difference was 10% on both sides. For the analysis, SAS software release 9.3 (manufactured by SAS Institute Japan Ltd.) was used.

| SMILES | concentration at which HSP70 mRNA expression inducing ability was increased up to 150% relative to the control [1] [mg/mL] | HSP70 mRNA expression as compared with the control [1] | activity level of Day 1 and Day 2 during the light period compared with the Control group (male Wistar rats; Compound A-2 group: MF containing 0.005% of Compound A (6.25 mg/kg BW/day), P=0.0481) | activity level on Day 1, light period (12 hours) after the phase advance compared with the Control group (male Wistar rats; Compound A-2 group: MF containing 0.005% of Compound A (6.25 mg/kg BW/day), P=0.016) | activity level of Day 1 and Day 2 during the light period compared with the Control group (male Wistar rats; Compound A-3 group: MF containing 0.05% of Compound A (62.46 mg/kg BW/day), P=0.0978) | activity level on Day 1, light period (12 hours) after the phase advance compared with the Control group (male Wistar rats; Compound A-3 group: MF containing 0.05% of Compound A (62.46 mg/kg BW/day), P=0.0536) |
| --- | --- | --- | --- | --- | --- | --- |
| O=C1N[C@@H](Cc2ccc(O)cc2)C(=O)N2CCC[C@@H]12 [Compound 3, (3S,8aS)-3-(4-hydroxybenzyl)hexahydropyrrolo[1,2-a]pyrazine-1,4-dione] | 0.101 | enhanced mRNA expression of HSP70 gene | – | – | – | – |
| O=C1N[C@@H](Cc2ccccc2)C(=O)N2CCC[C@@H]12 [Compound 2, (3S,8aS)-3-benzylhexahydropyrrolo[1,2-a]pyrazine-1,4-dione] | 0.045 | enhanced mRNA expression of HSP70 gene | – | – | – | – |
| CC(C)C[C@@H]1NC(=O)[C@@H]2CCCN2C1=O [Compound 1, (3S,8aS)-3-isobutylhexahydropyrrolo[1,2-a]pyrazine-1,4-dione] | 0.083 | enhanced mRNA expression of HSP70 gene | significantly inhibited the activity level | significantly suppressed the activity level | tendency to suppress the activity level | tended to suppress the activity level |
